Reference: patent publication US20110306035A1, “Methods and Compositions for Detection of a Pathogen, Disease, Medical Condition, or Biomarker Thereof” (priority 2008, published 2011)

Experiments:
3C protease (EV assay) = experiment: Assay optimization - solvent (EV assay, Camb 2); format: biochemical, Enterovirus; conditions: for effect on reaction rate: all concentrations tested
Method: (§1) Various solvents were tested in order to optimize substrate solubility and stability. […] All the solvents tested were prepared at 0-10% concentrations in 2× reaction buffer and the final concentrations tested were 0-5%. […] Camb 2 was added to the final 2× buffer. For 1,2-Propanediol and 1,3-Propanediol, Camb 2 was first dissolved in the solvent at the appropriate concentration. The solvent+camb2 was then added to 3× reaction buffer to make a final 2× reaction buffer+2 uM camb2. All the experiments were performed in the TECAN Polarstar n=1 in triplicates.

COX enzyme = target: T1, COX enzyme (Coxsackievirus B5, UniProt Q03053); experiment: Assay optimization - solvent with COX enzyme (1:10); format: biochemical, Enterovirus (COX)
T1 construct: 3D structure modeling of enterovirus 3C protease with it substrate Camb2
Method: as §1, with “All the experiments were performed in the TECAN Polarstar n=1 in triplicates.” left out
1,3-Propanediol with COX enzyme (1:10):

[1] = Acetonitrile 0.5% final, Table 43 Experiment 2
[2] = Acetonitrile 1% final, Table 42 Experiment 1
[3] = Acetonitrile 1% final, Table 43 Experiment 2
[4] = Acetonitrile 2.5% final, Table 42 Experiment 1
[5] = Acetonitrile 4% final, Table 42 Experiment 1
[6] = Acetonitrile 5% final, Table 42 Experiment 1
[7] = Isopropanol 1% final, Table 39 Experiment 1
[8] = Isopropanol 1% final, Table 40 Experiment 2
[9] = Isopropanol 2.5% final, Table 39 Experiment 1
[10] = Isopropanol 2.5% final, Table 40 Experiment 2
[11] = Isopropanol 4% final, Table 39 Experiment 1
[12] = Isopropanol 4% final, Table 40 Experiment 2
[13] = Isopropanol 5% final, Table 39 Experiment 1
[14] = Isopropanol 5% final, Table 40 Experiment 2
[15] = 1,2-propanediol 1% final, Table 50 Galaxy FLUOstar with nonbinding microplate
[16] = 1,2-propanediol 2.5% final, Table 49 TECAN with nonbinding microplate
[17] = 1,2-propanediol 2.5% final, Table 50 Galaxy FLUOstar with nonbinding microplate
[18] = 1,2-propanediol 4% final, Table 49 TECAN with nonbinding microplate
[19] = 1,2-propanediol 4% final, Table 50 Galaxy FLUOstar with nonbinding microplate
[20] = 1,2-propanediol 5% final, Table 49 TECAN with nonbinding microplate
[21] = 1,2-propanediol 5% final, Table 50 Galaxy FLUOstar with nonbinding microplate
[22] = 1,3-propanediol 1% final, Table 47 GalaxyFLUOstar, second sub-table
[23] = 1,3-propanediol 2.5% final, Table 47 GalaxyFLUOstar, second sub-table
[24] = 1,3-propanediol 2.5% final, Table 48 TECAN with nonbiding plate
[25] = 1,3-propanediol 4% final, Table 47 GalaxyFLUOstar, second sub-table
[26] = 1,3-propanediol 4% final, Table 48 TECAN with nonbiding plate
[27] = 1,3-propanediol 5% final, Table 47 GalaxyFLUOstar, first sub-table
[28] = 1,3-propanediol 5% final, Table 47 GalaxyFLUOstar, second sub-table
[29] = 1,3-propanediol 5% final, Table 48 TECAN with nonbiding plate

T1 sequence (Q03053 1541-1723): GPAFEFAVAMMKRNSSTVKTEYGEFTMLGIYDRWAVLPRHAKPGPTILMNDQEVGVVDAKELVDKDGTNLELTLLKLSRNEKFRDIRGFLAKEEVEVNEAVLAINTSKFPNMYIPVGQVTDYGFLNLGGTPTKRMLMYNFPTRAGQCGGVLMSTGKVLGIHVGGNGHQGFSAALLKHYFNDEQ

## CC#N [Acetonitrile]
3C protease (EV assay); [1]
  % Loss: 7%
  Reaction rate Average P.C: 1257.5 RFU/min
3C protease (EV assay); [2]
  % Loss: 43%
  Reaction rate Average P.C: 1106.6 RFU/min
3C protease (EV assay); [3]
  % Loss: 25%
  Reaction rate Average P.C: 1002.48 RFU/min
3C protease (EV assay); [4]
  % Loss: 57%
  Reaction rate Average P.C: 846.73 RFU/min
3C protease (EV assay); [5]
  % Loss: 65%
  Reaction rate Average P.C: 706.1 RFU/min
3C protease (EV assay); [6]
  % Loss: 84%
  Reaction rate Average P.C: 308.48 RFU/min
3C protease (EV assay)
  effect on reaction rate: loss in reaction rate

## CC(C)O [Isopropanol]
3C protease (EV assay); 4 and 5% final
  salt precipitation in reaction buffer: salt precipitation formed
3C protease (EV assay); [7]
  % Loss: 45%
  Reaction rate Average P.C: 641.57 RFU/min
3C protease (EV assay); [8]
  % Loss: 35%
  Reaction rate Average P.C: 1047.42 RFU/min
3C protease (EV assay); [9]
  % Loss: 3%
  Reaction rate Average P.C: 1143.93 RFU/min
3C protease (EV assay); [10]
  % Loss: 50%
  Reaction rate Average P.C: 806 RFU/min
3C protease (EV assay); [11]
  % Loss: 100%
  Reaction rate Average P.C: −2.7 RFU/min
3C protease (EV assay); [12]
  % Loss: 42%
  Reaction rate Average P.C: 676.0 RFU/min
3C protease (EV assay); [13]
  % Loss: 100%
  Reaction rate Average P.C: −4.19 RFU/min
3C protease (EV assay); [14]
  % Loss: 75%
  Reaction rate Average P.C: 394.82 RFU/min
3C protease (EV assay)
  effect on reaction rate: loss in reaction rate

## CC(O)CO (centres unmarked) [1,2-propanediol, 1,2-Propanediol]
COX enzyme; 1,2-propanediol 1% final, Table 49 TECAN with nonbinding microplate
  Reaction rate Average P.C: 8588.13 RFU/min
COX enzyme; [15]
  % Loss: 9%
  Reaction rate Average P.C: 5689.6 RFU/min
COX enzyme; [16]
  % Loss: 20%
  Reaction rate Average P.C: 6521.1 RFU/min
COX enzyme; [17]
  % Loss: 22%
  Reaction rate Average P.C: 4838.97 RFU/min
COX enzyme; [18]
  % Loss: 30%
  Reaction rate Average P.C: 5013.13 RFU/min
COX enzyme; [19]
  % Loss: 30%
  Reaction rate Average P.C: 4291.04 RFU/min
COX enzyme; [20]
  % Loss: 44%
  Reaction rate Average P.C: 4509 RFU/min
COX enzyme; [21]
  % Loss: 47%
  Reaction rate Average P.C: 3278.19 RFU/min
COX enzyme; all concentrations tested except 1%
  effect on enzymatic activity: inhibited enzymatic activity

## OCCCO [1,3-propanediol, 1,3-Propanediol]
COX enzyme; 1,3-propanediol 1% final, Table 47 GalaxyFLUOstar, first sub-table
  Reaction rate Average P.C: 3948.19 RFU/min
COX enzyme; [22]
  % Loss: 20%
  Reaction rate Average P.C: 4125.89 RFU/min
COX enzyme; 1,3-propanediol 1% final, Table 48 TECAN with nonbiding plate
  Reaction rate Average P.C: 7620.53 RFU/min
COX enzyme; [23]
  % Loss: 11%
  Reaction rate Average P.C: 4491.13 RFU/min
COX enzyme; [24]
  % Loss: 36%
  Reaction rate Average P.C: 4681.05 RFU/min
COX enzyme; [25]
  % Loss: 42%
  Reaction rate Average P.C: 2956.26 RFU/min
COX enzyme; [26]
  % Loss: 2%
  Reaction rate Average P.C: 7238.7 RFU/min
COX enzyme; [27]
  % Loss: 10%
  Reaction rate Average P.C: 3072.45 RFU/min
COX enzyme; [28]
  % Loss: 47%
  Reaction rate Average P.C: 2389.47 RFU/min
COX enzyme; [29]
  % Loss: 20%
  Reaction rate Average P.C: 5929.86 RFU/min
